According to the supplement of paper PMC7840683:

Tested on: HepaRG
Assay: LDH release cytotoxicity, % of total lysis control; higher = more cytotoxic
Settings: 48 h
In short: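 Duplicate wells of single-lot HepaRG cells, grown on collagen I-coated 96-well plates, received eight-point half-log series of test chemicals with 100 µM as the top concentration. Exposure lasted 48 h in serum-free induction medium with 0.5% DMSO, while total lysis wells received 0.1% Triton X. Resorufin fluorescence (CytoTox-ONE, Tecan Safire) was used to quantify LDH leaked into 50 µL of spent medium. Values for percent cytotoxicity were normalized to on-plate vehicle and total lysis controls and averaged across the duplicates.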

COCCOCCOCCOC [Triethylene glycol dimethyl ether]
Settings	LDH release cytotoxicity [%]
0.03162 µM	-0.0874
0.1 µM	-4.26
0.3162278 µM	-4.61
1 µM	-3.35
3.16228 µM	-3.81
10 µM	-3.38
31.6228 µM	-2.47
100 µM	1.14

OCCOCCOCCO [Triethylene glycol]
Settings	LDH release cytotoxicity [%]
0.03162 µM	-0.151
0.1 µM	-1.04
0.3162278 µM	-0.871
1 µM	-1.23
3.16228 µM	-1.32
10 µM	-0.871
31.6228 µM	-1.1
100 µM	0.204

CON=C(C(=O)OC)c1ccccc1CON=C(C)c1cccc(C(F)(F)F)c1 [Trifloxystrobin]
Settings	LDH release cytotoxicity [%]
0.03162 µM	-0.083
0.1 µM	-0.478
0.3162278 µM	-0.545
1 µM	0.0357
3.16228 µM	-0.301
10 µM	0.277
31.6228 µM	0.163
100 µM	1.57

COc1cc(OC)nc(NC(=O)NS(=O)(=O)c2ncccc2OCC(F)(F)F)n1 [Trifloxysulfuron-sodium]
Settings	LDH release cytotoxicity [%]
0.03162 µM	-1.39
0.1 µM	-0.662
0.3162278 µM	-1.7
1 µM	-1.75
3.16228 µM	-1.37
10 µM	-1.12
31.6228 µM	-1.62
100 µM	0.885

CCCOCC(=Nc1ccc(Cl)cc1C(F)(F)F)n1ccnc1 [Triflumizole]
Settings	LDH release cytotoxicity [%]
0.03162 µM	-0.709
0.1 µM	-1.15
0.3162278 µM	-0.687
1 µM	-0.497
3.16228 µM	-0.543
10 µM	-0.414
31.6228 µM	-0.332
100 µM	0.335

CCCN(CCC)c1c([N+](=O)[O-])cc(C(F)(F)F)cc1[N+](=O)[O-] [Trifluralin]
Settings	LDH release cytotoxicity [%]
0.03162 µM	-4.73
0.1 µM	-5.31
0.3162278 µM	-5.66
1 µM	-6.43
3.16228 µM	-5.85
10 µM	-6.17
31.6228 µM	-2.1
100 µM	66.3

CC(C)CCCCCCOC(=O)c1ccc(C(=O)OCCCCCCC(C)C)c(C(=O)OCCCCCCC(C)C)c1 [Triisononyl trimellitate]
Settings	LDH release cytotoxicity [%]
0.031623 µM	-0.391
0.1 µM	-0.474
0.316228 µM	-1.59
1 µM	-2.21
3.16228 µM	-2.67
10 µM	-1.83
31.6228 µM	-0.993
100 µM	0.476

O=P(Oc1ccccc1)(Oc1ccccc1)Oc1ccccc1 [Triphenyl phosphate]
Settings	LDH release cytotoxicity [%]
0.03162 µM	0.948
0.1 µM	-1.27
0.3162278 µM	-1.47
1 µM	-1.41
3.16228 µM	-0.353
10 µM	0.138
31.6228 µM	2.03
100 µM	27.1

c1ccc(OP(Oc2ccccc2)Oc2ccccc2)cc1 [Triphenyl phosphite]
Settings	LDH release cytotoxicity [%]
0.03162 µM	-1.51
0.1 µM	-1.17
0.3162278 µM	-1.23
1 µM	-1.46
3.16228 µM	-0.429
10 µM	-1.22
31.6228 µM	-1.26
100 µM	1.56

[OH-].c1cc[c]([Sn+]([c]2ccccc2)[c]2ccccc2)cc1 [Triphenyltin hydroxide]
Settings	LDH release cytotoxicity [%]
0.03162 µM	-0.226
0.1 µM	-1.04
0.3162278 µM	-0.513
1 µM	46.3
3.16228 µM	68.1
10 µM	57.1
31.6228 µM	63.5
100 µM	64.4

COCC(C)OCC(C)OCC(C)O (configuration not stated) [Tripropylene glycol monomethyl ether]
Settings	LDH release cytotoxicity [%]
0.03162 µM	-2.65
0.1 µM	-2.37
0.3162278 µM	-2.65
1 µM	-3.43
3.16228 µM	-2.88
10 µM	-1.77
31.6228 µM	-1.51
100 µM	0.876

O=P(OC(CCl)CCl)(OC(CCl)CCl)OC(CCl)CCl [Tris(1,3-dichloro-2-propyl) phosphate]
Settings	LDH release cytotoxicity [%]
0.03162 µM	0.268
0.1 µM	-1.46
0.3162278 µM	-0.407
1 µM	-1.12
3.16228 µM	-0.951
10 µM	-0.799
31.6228 µM	0.114
100 µM	9.87

O=c1n(CC2CO2)c(=O)n(CC2CO2)c(=O)n1CC1CO1 (configuration not stated) [Tris(2,3-epoxypropyl)isocyanurate]
Settings	LDH release cytotoxicity [%]
0.03162 µM	0.512
0.1 µM	0.218
0.3162278 µM	0.217
1 µM	0.322
3.16228 µM	-0.576
10 µM	0.383
31.6228 µM	0.616
100 µM	1.86

O=P(OCCCl)(OCCCl)OCCCl [Tris(2-chloroethyl) phosphate]
Settings	LDH release cytotoxicity [%]
0.03162 µM	0.00945
0.1 µM	-0.629
0.3162278 µM	-0.615
1 µM	-1.15
3.16228 µM	-0.623
10 µM	-0.4
31.6228 µM	0.187
100 µM	0.367

CCCCC(CC)COP(=O)(OCC(CC)CCCC)OCC(CC)CCCC (configuration not stated) [Tris(2-ethylhexyl) phosphate]
Settings	LDH release cytotoxicity [%]
0.03162 µM	-1.762
0.1 µM	-1.14
0.3162278 µM	-1.21
1 µM	-1.28
3.16228 µM	-1.23
10 µM	-1.26
31.6228 µM	-0.783
100 µM	0.473

CCCCC(CC)COC(=O)c1ccc(C(=O)OCC(CC)CCCC)c(C(=O)OCC(CC)CCCC)c1 (configuration not stated) [Tris(2-ethylhexyl) trimellitate]
Settings	LDH release cytotoxicity [%]
0.03162 µM	-1.9
0.1 µM	-0.779
0.3162278 µM	-1.6
1 µM	-0.598
3.16228 µM	-1.18
10 µM	-0.738
31.6228 µM	-0.634
100 µM	5.97

CC1(C)CCC(=Cc2ccc(Cl)cc2)C1(O)Cn1cncn1 (configuration not stated) [Triticonazole]
Settings	LDH release cytotoxicity [%]
0.0314647 µM	-0.271
0.0995 µM	-0.849
0.3146466 µM	-0.205
0.995 µM	-1.22
3.14647 µM	-0.364
9.95 µM	0.229
31.4647 µM	1.76
99.5 µM	5.55

Cc1c(C)c2c(c(C)c1O)CCC(C)(COc1ccc(CC3SC(=O)NC3=O)cc1)O2 (configuration not stated) [Troglitazone]
Settings	LDH release cytotoxicity [%]
0.03162 µM	-0.878
0.1 µM	-0.342
0.3162278 µM	-1.04
1 µM	-0.379
3.16228 µM	-0.376
10 µM	-1.1
31.6228 µM	8.12
100 µM	62.4

CCCCCCCCCCC [Undecane]
Settings	LDH release cytotoxicity [%]
0.031623 µM	-1.34
0.1 µM	-0.1
0.316228 µM	-2.37
1 µM	-2.3
3.16228 µM	-2.08
10 µM	-0.723
31.6228 µM	-0.989
100 µM	1.06

NC(N)=O [Urea]
Settings	LDH release cytotoxicity [%]
0.03162 µM	-1.69
0.1 µM	-0.896
0.3162278 µM	-1.17
1 µM	-1.62
3.16228 µM	-0.792
10 µM	-0.693
31.6228 µM	-1.24
100 µM	1.24

CCOC(N)=O [Urethane]
Settings	LDH release cytotoxicity [%]
0.03162 µM	-1.53
0.1 µM	-1.5
0.3162278 µM	-1.42
1 µM	-1.29
3.16228 µM	-1.03
10 µM	-1.2
31.6228 µM	-0.4372
100 µM	0.365

CCCC(CCC)C(=O)O [Valproic acid]
Settings	LDH release cytotoxicity [%]
0.031623 µM	-0.788
0.1 µM	-2.27
0.316228 µM	-1.27
1 µM	-2.73
3.16228 µM	-1.85
10 µM	-2.14
31.6228 µM	-1.38
100 µM	-0.176

CCCSC(=O)N(CCC)CCC [Vernolate]
Settings	LDH release cytotoxicity [%]
0.03162 µM	-0.794
0.1 µM	-0.827
0.3162278 µM	-0.738
1 µM	-2.07
3.16228 µM	-1.14
10 µM	-0.659
31.6228 µM	0.0809
100 µM	1.84

C=CC1(C)OC(=O)N(c2cc(Cl)cc(Cl)c2)C1=O (configuration not stated) [Vinclozolin]
Settings	LDH release cytotoxicity [%]
0.031623 µM	-0.342
0.1 µM	-2.45
0.316228 µM	-2.11
1 µM	-1.77
3.16228 µM	-1.59
10 µM	-1.87
31.6228 µM	-1.19
100 µM	0.481

COc1cccc(C(O)C2CCN(CCc3ccc(F)cc3)CC2)c1OC (configuration not stated) [Volinanserin]
Settings	LDH release cytotoxicity [%]
0.03162 µM	-0.377
0.1 µM	-1.03
0.3162278 µM	0.298
1 µM	-0.566
3.16228 µM	-0.0858
10 µM	-1.21
31.6228 µM	0.408
100 µM	7.12

CC(=O)CC(c1ccccc1)C1C(=O)Oc2ccccc2C1=O (configuration not stated) [Warfarin]
Settings	LDH release cytotoxicity [%]
0.03162 µM	-1.66
0.1 µM	-1.26
0.3162278 µM	-0.808
1 µM	-0.262
3.16228 µM	-0.866
10 µM	-0.731
31.6228 µM	0.385
100 µM	2.56

Cc1occc1C(=O)Nc1ccc(C(=O)N2CCC(F)(F)/C(=C\C(=O)N3CCC(N4CCCCC4)CC3)c3ccccc32)cc1 [YM218]
Settings	LDH release cytotoxicity [%]
0.01976 µM	-1.36
0.0625 µM	-1.93
0.197642 µM	-3.13
0.625 µM	-2.977
1.976424 µM	-3.81
6.25 µM	-2.99
19.7642 µM	-1.84
62.5 µM	19.8

c1ccc(C(OC2CCCN(CCc3ccc4c(c3)OCO4)C2)c2ccccc2)cc1 (configuration not stated) [Zamifenacin]
Settings	LDH release cytotoxicity [%]
0.03162 µM	-1.023
0.1 µM	-1.51
0.3162278 µM	-1.31
1 µM	-1.54
3.16228 µM	-1.68
10 µM	-1.11
31.6228 µM	2
100 µM	51.7

O=C(O)Cn1c(=O)n(Cc2ccc(Br)cc2F)c(=O)c2ccc(Cl)cc21 [Zenarestat]
Settings	LDH release cytotoxicity [%]
0.03162 µM	-0.858
0.1 µM	-0.293
0.3162278 µM	-0.841
1 µM	-0.408
3.16228 µM	-0.109
10 µM	0.443
31.6228 µM	-0.513
100 µM	0.792
